# In US20240199587A1, “HETEROCYCLIC COMPOUNDS” (Hoffmann-La Roche Inc., priority 2021, published 2024):
# Biological target: T1, MAGL (Homo sapiens, UniProt Q99685)
# T1 sequence (Q99685 1-303): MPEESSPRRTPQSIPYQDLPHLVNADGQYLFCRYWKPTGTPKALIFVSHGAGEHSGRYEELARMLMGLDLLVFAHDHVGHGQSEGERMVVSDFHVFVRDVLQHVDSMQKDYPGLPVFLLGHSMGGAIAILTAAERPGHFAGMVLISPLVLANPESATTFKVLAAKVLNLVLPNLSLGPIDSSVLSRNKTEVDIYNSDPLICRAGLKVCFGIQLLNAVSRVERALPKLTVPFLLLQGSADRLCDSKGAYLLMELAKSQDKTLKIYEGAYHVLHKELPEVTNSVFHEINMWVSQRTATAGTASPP
# Test: 2-AG assay (MAGL inhibitory activity, hydrolysis of 2-arachidonoylglycerol to arachidonic acid followed by mass spectrometry)
# Assay type: biochemical
# Settings: 8 μM 2-arachidonoylglycerol, 15 min pre-incubation, 30 min incubation at RT, RapidFire MS readout
# Method in brief: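 Arachidonic acid released from 8 μM 2-arachidonoylglycerol was quantified by online SPE triple-quadrupole MS (negative ESI, 303.1→259.1), normalised to d8-arachidonic acid internal standard. Reaction ran 30 min at RT after 15 min RT compound pre-incubation with […] MAGL in TRIS/EDTA/Tween-20 buffer, 2.5% DMSO.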
row,Compound,IC50 [nM]
1,"O=C(N1CC(Oc2cncc(C(F)(F)F)n2)C1)N1CC2(CC(n3cnc(C4CC4)n3)C2)C1 [Example 303, [6-(3-cyclopropyl-1,2,4-triazol-1-yl)-2-azaspiro[3.3]heptan-2-yl]-[3-[6-(trifluoromethyl)pyrazin-2-yl]oxyazetidin-1-yl]methanone]",101
2,"O=C(N1CC2(CC(n3cnc(C4CC4)n3)C2)C1)N1CC2(C1)CN(S(=O)(=O)C(F)(F)F)C2 [Example 304, [6-(3-cyclopropyl-1,2,4-triazol-1-yl)-2-azaspiro[3.3]heptan-2-yl]-[2-(trifluoromethylsulfonyl)-2,6-diazaspiro[3.3]heptan-6-yl]methanone]",108
3,"O=C(N1CC(OCc2ccc(S(F)(F)(F)(F)F)cc2)C1)N1CC2(CC(n3cnc(C(F)(F)F)c3)C2)C1 [Example 307, [3-[[4-(pentafluoro-λ^6-sulfanyl)phenyl]methoxy]azetidin-1-yl]-[6-[4-(trifluoromethyl)imidazol-1-yl]-2-azaspiro[3.3]heptan-2-yl]methanone]",136
4,N#Cc1ccc(S(=O)(=O)N2CC3(CN(C(=O)N4CC5(CC(n6cnc(C7CC7)n6)C5)C4)C3)C2)cc1 [Example 308],138
5,"COc1ncccc1S(=O)(=O)N1CC2(CN(C(=O)N3CC4(CC(n5cnc(C6CC6)n5)C4)C3)C2)C1 [Example 309, [6-(3-cyclopropyl-1,2,4-triazol-1-yl)-2-azaspiro[3.3]heptan-2-yl]-[2-[(2-methoxy-3-pyridyl)sulfonyl]-2,6-diazaspiro[3.3]heptan-6-yl]methanone]",148
6,"Nc1ncc(S(=O)(=O)N2CC3(CN(C(=O)N4CC5(CC(n6cnc(C7CC7)n6)C5)C4)C3)C2)cn1 [Example 310, [2-(2-aminopyrimidin-5-yl)sulfonyl-2,6-diazaspiro[3.3]heptan-6-yl]-[6-(3-cyclopropyl-1,2,4-triazol-1-yl)-2-azaspiro[3.3]heptan-2-yl]methanone]",154
7,"CNC(=O)C(c1ccccc1)N1CC2(CN(C(=O)N3CC4(CC(n5cnc(C6CC6)n5)C4)C3)C2)C1 (stereo not drawn) [Example 311, 2-[2-[6-(3-cyclopropyl-1,2,4-triazol-1-yl)-2-azaspiro[3.3]heptane-2-carbonyl]-2,6-diazaspiro[3.3]heptan-6-yl]-N-methyl-2-phenyl-acetamide]",176
8,"O=C(NCC(F)(F)F)c1cnn(C2CN(C(=O)N3CC4(CC(n5cnc(C6CC6)n5)C4)C3)C2)c1 [Example 312, 1-[1-[6-(3-cyclopropyl-1,2,4-triazol-1-yl)-2-azaspiro[3.3]heptane-2-carbonyl]azetidin-3-yl]-N-(2,2,2-trifluoroethyl)pyrazole-4-carboxamide]",202
9,"CN(C)S(=O)(=O)N1CC2(CN(C(=O)N3CC4(CC(n5cnc(C6CC6)n5)C4)C3)C2)C1 [Example 314, 6-[6-(3-cyclopropyl-1,2,4-triazol-1-yl)-2-azaspiro[3.3]heptane-2-carbonyl]-N,N-dimethyl-2,6-diazaspiro[3.3]heptane-2-sulfonamide]",229
10,"Cc1cn(C2CC3(C2)CN(C(=O)N2CC(OCc4ccc(S(F)(F)(F)(F)F)cc4)C2)C3)cn1 [Example 315, [6-(4-methylimidazol-1-yl)-2-azaspiro[3.3]heptan-2-yl]-[3-[[4-(pentafluoro-26-sulfanyl)phenyl]methoxy]azetidin-1-yl]methanone]",240
11,"O=C(N1CC2(CC(n3cnc(C4CC4)n3)C2)C1)N1CC2(C1)CN(S(=O)(=O)c1cccnc1)C2 [Example 317, [6-(3-cyclopropyl-1,2,4-triazol-1-yl)-2-azaspiro[3.3]heptan-2-yl]-[2-(3-pyridylsulfonyl)-2,6-diazaspiro[3.3]heptan-6-yl]methanone]",274
12,"O=C(N1CC2(CC(n3cnc(C4CC4)n3)C2)C1)N1CC2(C1)CN(S(=O)(=O)N1CCOCC1)C2 [Example 318, [6-(3-cyclopropyl-1,2,4-triazol-1-yl)-2-azaspiro[3.3]heptan-2-yl]-(2-morpholinosulfonyl-2,6-diazaspiro[3.3]heptan-6-yl)methanone]",291
13,NS(=O)(=O)c1ccc(F)c(CC2CCN(C(=O)N3CC4(CC(n5cnc(C6CC6)n5)C4)C3)CC2)c1 [Example 319],301
14,"CCCS(=O)(=O)N1CC2(CN(C(=O)N3CC4(CC(n5cnc(C6CC6)n5)C4)C3)C2)C1 [Example 320, [6-(3-cyclopropyl-1,2,4-triazol-1-yl)-2-azaspiro[3.3]heptan-2-yl]-(2-propylsulfonyl-2,6-diazaspiro[3.3]heptan-6-yl)methanone]",314
15,"O=C(N1CCC(NS(=O)(=O)c2ccc(C(F)(F)F)cc2)CC1)N1CC2(CC(n3cnc(C4CC4)n3)C2)C1 [Example 321, N-[1-[6-(3-cyclopropyl-1,2,4-triazol-1-yl)-2-azaspiro[3.3]heptane-2-carbonyl]-4-piperidyl]-4-(trifluoromethyl) benzenesulfonamide]",331
16,"O=C(N1CC(Oc2nnccc2C(F)(F)F)C1)N1CC2(CC(n3cnc(C4CC4)n3)C2)C1 [Example 322, [6-(3-cyclopropyl-1,2,4-triazol-1-yl)-2-azaspiro[3.3]heptan-2-yl]-[3-[4-(trifluoromethyl)pyridazin-3-yl]oxyazetidin-1-yl]methanone]",340
17,"O=C(N1CCC(CNS(=O)(=O)c2ccccc2)CC1)N1CC2(CC(n3cnc(C4CC4)n3)C2)C1 [Example 325, N-[[1-[6-(3-cyclopropyl-1,2,4-triazol-1-yl)-2-azaspiro[3.3]heptane-2-carbonyl]-4-piperidyl]methyl]benzene-sulfonamide]",482
18,"CCc1ncnn1C1CC2(C1)CN(C(=O)N1CC3(CC(Cc4ccc(F)cc4F)C3)C1)C2 [Example 328, [6-[(2,4-difluorophenyl)methyl]-2-azaspiro[3.3]heptan-2-yl]-[6-(5-ethyl-1,2,4-triazol-1-yl)-2-azaspiro[3.3]heptan-2-yl]methanone]",673
19,"O=C(N1CC2(CC(n3cnc(C4CC4)n3)C2)C1)N1CC2(C1)CN(S(=O)(=O)CC(F)(F)F)C2 [Example 329, [6-(3-cyclopropyl-1,2,4-triazol-1-yl)-2-azaspiro[3.3]heptan-2-yl]-[2-(2,2,2-trifluoroethylsulfonyl)-2,6-diazaspiro[3.3]heptan-6-yl]methanone]",743
20,"NC(=O)C(c1ccc(F)cc1)N1CCN(C(=O)N2CC3(CC(n4cnc(C5CC5)n4)C3)C2)CC1 (stereo not drawn) [Example 332, 2-[4-[6-(3-cyclopropyl-1,2,4-triazol-1-yl)-2-azaspiro[3.3]heptane-2-carbonyl]piperazin-1-yl]-2-(4-fluorophenyl)acetamide]",904

# Now from value to compound:
row,IC50 [nM],Compound
1,117,"NC(=O)C(c1ccc(F)cc1)C1CCN(C(=O)N2CC3(CC(n4cnc(C5CC5)n4)C3)C2)CC1 (stereo not drawn) [Example 305, 2-[1-[6-(3-cyclopropyl-1,2,4-triazol-1-yl)-2-azaspiro[3.3]heptane-2-carbonyl]-4-piperidyl]-2-(4-fluorophenyl)acetamide]"
2,129,"NC(=O)[C@H](c1ccc(F)cc1)N1CCN(C(=O)N2CC3(CC(n4cnc(C5CC5)n4)C3)C2)CC1 [Example 306, (2S)-2-[4-[6-(3-cyclopropyl-1,2,4-triazol-1-yl)-2-azaspiro[3.3]heptane-2-carbonyl]piperazin-1-yl]-2-(4-fluorophenyl)acetamide]"
3,206,"O=C(O)c1ccccc1CN1CC2(C1)CN(C(=O)N1CC3(CC(n4cnc(C5CC5)n4)C3)C1)C2 [Example 313, 2-[[2-[6-(3-cyclopropyl-1,2,4-triazol-1-yl)-2-azaspiro[3.3]heptane-2-carbonyl]-2,6-diazaspiro[3.3]heptan-6-yl]methyl]benzoic acid]"
4,248,"O=C(N1CC(Oc2nccc(C(F)(F)F)n2)C1)N1CC2(CC(n3cnc(C4CC4)n3)C2)C1 [Example 316, [6-(3-cyclopropyl-1,2,4-triazol-1-yl)-2-azaspiro[3.3]heptan-2-yl]-[3-[4-(trifluoromethyl)pyrimidin-2-yl]oxyazetidin-1-yl]methanone]"
5,365,"NC(=O)c1ccccc1S(=O)(=O)N1CC2(CN(C(=O)N3CC4(CC(n5cnc(C6CC6)n5)C4)C3)C2)C1 [Example 323, 2-[[6-[6-(3-cyclopropyl-1,2,4-triazol-1-yl)-2-azaspiro[3.3]heptane-2-carbonyl]-2,6-diazaspiro[3.3]heptan-2-yl]sulfonyl]benzamide]"
6,402,O=C(O)c1ccc(S(=O)(=O)N2CC3(CN(C(=O)N4CC5(CC(n6cnc(C7CC7)n6)C5)C4)C3)C2)cc1 [Example 324]
7,583,"NC(=O)[C@@H](c1ccc(F)cc1)N1CCN(C(=O)N2CC3(CC(n4cnc(C5CC5)n4)C3)C2)CC1 [Example 326, (2R)-2-[4-[6-(3-cyclopropyl-1,2,4-triazol-1-yl)-2-azaspiro[3.3]heptane-2-carbonyl]piperazin-1-yl]-2-(4-fluorophenyl)acetamide]"
8,611,O=C(O)c1ccc(F)c(S(=O)(=O)N2CC3(CN(C(=O)N4CC5(CC(n6cnc(C7CC7)n6)C5)C4)C3)C2)c1 [Example 327]
9,744,"CNC(=O)[C@H](c1ccc(F)cc1)N1CCN(C(=O)N2CC3(CC(n4cnc(C5CC5)n4)C3)C2)CC1 [Example 330, (2S)-2-[4-[6-(3-cyclopropyl-1,2,4-triazol-1-yl)-2-azaspiro[3.3]heptane-2-carbonyl]piperazin-1-yl]-2-(4-fluorophenyl)-N-methyl-acetamide]"
10,797,"Cn1cc(S(=O)(=O)N2CC3(CN(C(=O)N4CC5(CC(n6cnc(C7CC7)n6)C5)C4)C3)C2)cn1 [Example 331, [6-(3-cyclopropyl-1,2,4-triazol-1-yl)-2-azaspiro[3.3]heptan-2-yl]-[2-(1-methylpyrazol-4-yl)sulfonyl-2,6-diazaspiro[3.3]heptan-6-yl]methanone]"
